Consider 26 molecules from patent US9586961B2, “Homopiperazine derivatives as protein tyrosine kinase inhibitors and pharmaceutical use thereof” (LEO PHARMA A/S, priority 2010, dated 2017).

As usually defined, the EC50 is the concentration at which the effect is half-maximal.

Common to all, as to type: biochemical
In test [1] the target is T1, JAK3 (Homo sapiens, UniProt P52333).
T1 construct: All four purified enzymes contain only the catalytic domain; His (N); purchased Carna Biosciences, Inc; host or cells: baculovirus expression system
Put plainly: JAK3 kinase assay (HTRF, inhibition of phosphorylation of a synthetic peptide). Conditions: catalytic domain, His-tag; 2 μM ATP (Km); read-out: JAK3 kinase inhibitory activity (EC50). The gist of the method: (§1)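 Baculovirus-expressed catalytic domains (GST-JAK1 aa 850-1154, GST-TYK2 aa 871-1187, His-JAK2, His-JAK3) phosphorylate 1 μM biotin-TK peptide 20-30 min at RT in 50 mM Hepes pH 7.0 with ATP at Km: JAK1 7 μM, JAK2 4 μM, JAK3 2 μM, TYK2 13 μM; 0.75% DMSO. Stopped with EDTA, HTRF read overnight.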

For test [2], the target named is T2, JAK1 (Homo sapiens, UniProt P23458).
T2 construct: JAK1 (aa 850-1154) and TYK2 (aa 871-1187) are expressed with an N-terminally fused GST-tag; GST (N); purchased Carna Biosciences, Inc; host or cells: baculovirus expression system
Put plainly: JAK1 kinase assay (HTRF, inhibition of phosphorylation of a synthetic peptide). Particulars: catalytic domain aa 850-1154, GST-tag; 7 μM ATP (Km); read-out: JAK1 kinase inhibitory activity (EC50). The gist of the method:
as §1
A general note: TR-FRET usually uses a lanthanide donor and a delayed reading to cut background.

The target of test [3] is T3, JAK2 (Homo sapiens, UniProt O60674).
T3 construct: All four purified enzymes contain only the catalytic domain; His (N); purchased Carna Biosciences, Inc; host or cells: baculovirus expression system
Put plainly: JAK2 kinase assay (HTRF, inhibition of phosphorylation of a synthetic peptide). Conditions: catalytic domain, His-tag; 4 μM ATP (Km); read-out: JAK2 kinase inhibitory activity (EC50). The gist of the method: as §1

Where only a bound is given, the exact number is not on record here.

T3 sequence (O60674 849-1124 limits assumed): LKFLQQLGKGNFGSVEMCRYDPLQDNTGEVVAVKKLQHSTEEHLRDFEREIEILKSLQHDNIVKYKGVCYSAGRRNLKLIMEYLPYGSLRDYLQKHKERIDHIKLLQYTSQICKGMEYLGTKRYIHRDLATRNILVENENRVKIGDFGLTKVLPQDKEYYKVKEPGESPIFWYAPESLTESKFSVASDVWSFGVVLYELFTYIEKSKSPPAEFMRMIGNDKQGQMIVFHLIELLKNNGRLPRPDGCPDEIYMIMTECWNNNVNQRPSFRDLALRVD
T2 sequence (P23458 850-1154): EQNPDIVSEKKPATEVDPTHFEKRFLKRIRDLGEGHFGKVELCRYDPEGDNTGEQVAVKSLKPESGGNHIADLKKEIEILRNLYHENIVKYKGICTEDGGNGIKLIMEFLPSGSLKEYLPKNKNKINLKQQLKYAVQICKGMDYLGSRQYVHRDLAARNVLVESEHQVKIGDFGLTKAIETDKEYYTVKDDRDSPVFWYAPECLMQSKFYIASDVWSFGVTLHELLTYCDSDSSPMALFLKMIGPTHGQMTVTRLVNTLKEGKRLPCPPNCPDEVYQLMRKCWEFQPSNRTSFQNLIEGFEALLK
T1 sequence (P52333 822-1111 limits assumed): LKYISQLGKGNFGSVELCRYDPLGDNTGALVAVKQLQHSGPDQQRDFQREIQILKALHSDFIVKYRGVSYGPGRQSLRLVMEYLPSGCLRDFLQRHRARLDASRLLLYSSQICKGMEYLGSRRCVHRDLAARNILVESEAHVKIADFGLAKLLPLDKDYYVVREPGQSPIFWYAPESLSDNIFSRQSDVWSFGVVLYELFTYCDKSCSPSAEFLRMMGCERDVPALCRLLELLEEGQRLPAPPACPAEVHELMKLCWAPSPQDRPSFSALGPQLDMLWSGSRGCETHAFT

Take `O=C(c1ccc(Cl)cc1)N1CCN(c2ncnc3[nH]ccc23)CC2(CC2)C1` [Example 176, (4-chlorophenyl)-[5-(7H-pyrrolo[2,3-d]pyrimidin-4-yl)-5,8-diazaspiro[2.6]nonan-8-yl]methanone]: the EC50 was 100 to 1000 nM in test [1], 100 to 1000 nM in test [2] and < 100 nM in test [3].

`N#Cc1cccc(OCC(=O)N2CCN(c3ncnc4[nH]ccc34)CC3(CC3)C2)c1` [Example 118, 3-[2-oxo-2-[5-(7H-pyrrolo[2,3-d]pyrimidin-4-yl)-5,8-diazaspiro[2.6]nonan-8-yl]ethoxy]benzonitrile]: the EC50 in test [1] was 100 to 1000 nM; in test [2], 100 to 1000 nM; in test [3] it was < 100 nM.

Consider `O=C1CCC(=O)N1CC(=O)N1CCCN(c2ncnc3[nH]ccc23)CC12CC2` [Example 84, 1-[2-oxo-2-[5-(7H-pyrrolo[2,3-d]pyrimidin-4-yl)-5,9-diazaspiro[2.6]nonan-9-yl]ethyl]pyrrolidine-2,5-dione], for which the EC50 in test [1], in test [2] and in test [3] was 100 to 1000 nM throughout.

Regarding `N#CCN(CC#N)C(=O)N1CCN(c2ncnc3[nH]ccc23)CC2(CC2)C1` [Example 219, N,N-bis(cyanomethyl)-5-(7H-pyrrolo[2,3-d]pyrimidin-4-yl)-5,8-diazaspiro[2.6]nonane-8-carboxamide], the EC50 in test [1] was 100 to 1000 nM; in test [2], 100 to 1000 nM; in test [3], < 100 nM.

Consider `O=C(c1ccc(Cl)cc1)N1CCCN(c2ncnc3[nH]ccc23)CC12CC2` [Example 180, (4-chlorophenyl)-[5-(7H-pyrrolo[2,3-d]pyrimidin-4-yl)-5,9-diazaspiro[2.6]nonan-9-yl]methanone], for which the results for the EC50 in test [1], in test [2] and in test [3] were 100 to 1000 nM, < 100 nM and < 100 nM, respectively.

With `Cc1nc(CC(=O)N2CCN(c3ncnc4[nH]ccc34)CC3(CC3)C2)cs1` [Example 254, 2-(2-methylthiazol-4-yl)-1-[5-(7H-pyrrolo[2,3-d]pyrimidin-4-yl)-5,8-diazaspiro[2.6]nonan-8-yl]ethanone], the EC50 in test [1] is > 1000 nM; in test [2] it was 100 to 1000 nM; in test [3], 100 to 1000 nM.

With `Cc1cncc(C(=O)N2CCN(c3ncnc4[nH]ccc34)CC3(CC3)C2)n1` [Example 169, (6-methylpyrazin-2-yl)-[5-(7H-pyrrolo[2,3-d]pyrimidin-4-yl)-5,8-diazaspiro[2.6]nonan-8-yl]methanone], the EC50 in test [1] was > 1000 nM; in test [2], > 1000 nM; in test [3] it was 100 to 1000 nM.

As for `O=C(c1ccsn1)N1CCN(c2ncnc3[nH]ccc23)CC2(CC2)C1` [Example 200, isothiazol-3-yl-[5-(7H-pyrrolo[2,3-d]pyrimidin-4-yl)-5,8-diazaspiro[2.6]nonan-8-yl]methanone], the EC50 in test [1], in test [2] and in test [3] was 100 to 1000 nM each time.

In the case of `O=C(c1n[nH]c(Cl)n1)N1CCN(c2ncnc3[nH]ccc23)CC2(CC2)C1` [Example 231, (5-chloro-1H-1,2,4-triazol-3-yl)-[5-(7H-pyrrolo[2,3-d]pyrimidin-4-yl)-5,8-diazaspiro[2.6]nonan-8-yl]methanone], the EC50 in test [1], in test [2] and in test [3] was 100 to 1000 nM throughout.

In the case of `Cc1cc(C(=O)N2CCN(c3ncnc4[nH]ccc34)CC3(CC3)C2)no1` [Example 175, (5-methylisoxazol-3-yl)-[5-(7H-pyrrolo[2,3-d]pyrimidin-4-yl)-5,8-diazaspiro[2.6]nonan-8-yl]methanone], the EC50 in test [1], in test [2] and in test [3] was 100 to 1000 nM throughout.

`CCN(CCC#N)C(=O)N1CCN(c2ncnc3[nH]ccc23)CC2(CC2)C1` [Example 224, N-(2-cyanoethyl)-N-ethyl-5-(7H-pyrrolo[2,3-d]pyrimidin-4-yl)-5,8-diazaspiro[2.6]nonane-8-carboxamide]: the EC50 is 100 to 1000 nM in test [1], > 1000 nM in test [2] and 100 to 1000 nM in test [3].

On to `Cc1cc(C(=O)N2CCN(c3ncnc4[nH]ccc34)CC3(CC3)C2)n(C)n1` [Example 143, (2,5-dimethylpyrazol-3-yl)-[5-(7H-pyrrolo[2,3-d]pyrimidin-4-yl)-5,8-diazaspiro[2.6]nonan-8-yl]methanone], for which the EC50 in test [1], in test [2] and in test [3] was > 1000 nM each time.

Take `N#Cc1ccccc1C(=O)N1CCCN(c2ncnc3[nH]ccc23)CC12CC2` [Example 162, 2-[5-(7H-pyrrolo[2,3-d]pyrimidin-4-yl)-5,9-diazaspiro[2.6]nonane-9-carbonyl]benzonitrile]: the EC50 in test [1] was > 1000 nM; in test [2], > 1000 nM; in test [3], 100 to 1000 nM.

Take `O=C(Cc1ccc(Cl)cc1)N1CCCN(c2ncnc3[nH]ccc23)CC12CC2` [Example 126, 2-(4-chlorophenyl)-1-[5-(7H-pyrrolo[2,3-d]pyrimidin-4-yl)-5,9-diazaspiro[2.6]nonan-9-yl]ethanone]: the EC50 was 100 to 1000 nM in test [1], 100 to 1000 nM in test [2] and < 100 nM in test [3].

Regarding `O=C(c1cncnc1)N1CCCN(c2ncnc3[nH]ccc23)CC12CC2` [Example 161, pyrimidin-5-yl-[5-(7H-pyrrolo[2,3-d]pyrimidin-4-yl)-5,9-diazaspiro[2.6]nonan-9-yl]methanone], the EC50 in test [1] is > 1000 nM; in test [2] it was 100 to 1000 nM; in test [3], 100 to 1000 nM.

Take `O=C(Cc1nnn[nH]1)N1CCCN(c2ncnc3[nH]ccc23)CC12CC2` [Example 226, 1-[5-(7H-pyrrolo[2,3-d]pyrimidin-4-yl)-5,9-diazaspiro[2.6]nonan-9-yl]-2-(1H-tetrazol-5-yl)ethanone]: the figures for the EC50 in test [1], in test [2] and in test [3] were > 1000 nM, > 1000 nM and 100 to 1000 nM, respectively.

For the molecule `Cc1cc(CC(=O)N2CCN(c3ncnc4[nH]ccc34)CC3(CC3)C2)on1` [Example 184, 2-(3-methylisoxazol-5-yl)-1-[5-(7H-pyrrolo[2,3-d]pyrimidin-4-yl)-5,8-diazaspiro[2.6]nonan-8-yl]ethanone], the EC50 is 100 to 1000 nM in test [1], < 100 nM in test [2] and < 100 nM in test [3].

`Cc1noc(C)c1CC(=O)N1CCN(c2ncnc3[nH]ccc23)CC2(CC2)C1` [Example 249, 2-(3,5-dimethylisoxazol-4-yl)-1-[5-(7H-pyrrolo[2,3-d]pyrimidin-4-yl)-5,8-diazaspiro[2.6]nonan-8-yl]ethanone]: the EC50 in test [1] was > 1000 nM; in test [2], 100 to 1000 nM; in test [3], 100 to 1000 nM.

On to `Cc1nnsc1C(=O)N1CCN(c2ncnc3[nH]ccc23)CC2(CC2)C1` [Example 146, (4-methylthiadiazol-5-yl)-[5-(7H-pyrrolo[2,3-d]pyrimidin-4-yl)-5,8-diazaspiro[2.6]nonan-8-yl]methanone], for which the results for the concentration for a half-maximal effect (EC50) in test [1], in test [2] and in test [3] were > 1000 nM, 100 to 1000 nM and 100 to 1000 nM, respectively.

Consider `O=C(Cc1ccccn1)N1CCN(c2ncnc3[nH]ccc23)CC2(CC2)C1` [Example 167, 2-(2-pyridyl)-1-[5-(7H-pyrrolo[2,3-d]pyrimidin-4-yl)-5,8-diazaspiro[2.6]nonan-8-yl]ethanone], for which the EC50 in test [1] was > 1000 nM; in test [2], 100 to 1000 nM; in test [3], 100 to 1000 nM.

Turning to `O=C(c1cncs1)N1CCN(c2ncnc3[nH]ccc23)CC2(CC2)C1` [Example 239, [5-(7H-pyrrolo[2,3-d]pyrimidin-4-yl)-5,8-diazaspiro[2.6]nonan-8-yl]-thiazol-5-yl-methanone], the EC50 in test [1], in test [2] and in test [3] was 100 to 1000 nM each time.

On to `O=C(Cc1ccc2ccccc2c1)N1CCN(c2ncnc3[nH]ccc23)CC2(CC2)C1` [Example 265, 2-(2-naphthyl)-1-[5-(7H-pyrrolo[2,3-d]pyrimidin-4-yl)-5,8-diazaspiro[2.6]nonan-8-yl]ethanone], for which the EC50 was 100 to 1000 nM in test [1], 100 to 1000 nM in test [2] and < 100 nM in test [3].

Regarding `O=C(c1cncc(F)c1)N1CCCN(c2ncnc3[nH]ccc23)CC12CC2` [Example 214, (5-fluoro-3-pyridyl)-[5-(7H-pyrrolo[2,3-d]pyrimidin-4-yl)-5,9-diazaspiro[2.6]nonan-9-yl]methanone], the EC50 in test [1], in test [2] and in test [3] was 100 to 1000 nM throughout.

Take `CC(C)(C(=O)N1CCN(c2ncnc3[nH]ccc23)CC2(CC2)C1)c1ccc(Cl)cc1` [Example 269, 2-(4-chlorophenyl)-2-methyl-1-[5-(7H-pyrrolo[2,3-d]pyrimidin-4-yl)-5,8-diazaspiro[2.6]nonan-8-yl]propan-1-one]: the half-maximal effective concentration (EC50) in test [1], in test [2] and in test [3] was 100 to 1000 nM throughout.

Take `O=C(c1ccc(O)nc1)N1CCN(c2ncnc3[nH]ccc23)CC2(CC2)C1` [Example 131, (6-hydroxy-3-pyridyl)-[5-(7H-pyrrolo[2,3-d]pyrimidin-4-yl)-5,8-diazaspiro[2.6]nonan-8-yl]methanone]: the concentration giving a half-maximal response (EC50) in test [1], in test [2] and in test [3] was 100 to 1000 nM in each case.

Turning to `Cn1cc(CC(=O)N2CCN(c3ncnc4[nH]ccc34)CC3(CC3)C2)cn1` [Example 253, 2-(1-methylpyrazol-4-yl)-1-[5-(7H-pyrrolo[2,3-d]pyrimidin-4-yl)-5,8-diazaspiro[2.6]nonan-8-yl]ethanone], the concentration giving a half-maximal response (EC50) in test [1] is > 1000 nM; in test [2], 100 to 1000 nM; in test [3] it was 100 to 1000 nM.
